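Exposure lasted 48 hours, with cells grown in 96-well plates and compounds tested at five concentrations. Here, GI50 denotes the concentration required for 50% inhibition of growth. TGI: total growth inhibition.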
Experiments:
Assay in all cases: growth of human tumour cells (NCI), 48 h
786-0 renal = tested on: 786-0 renal
A498 renal = tested on: A498 renal
A549 NSCLC = tested on: A549 NSCLC
ACHN renal = tested on: ACHN renal
BT-549 breast = tested on: BT-549 breast
CAKI-1 renal = tested on: CAKI-1 renal
COLO 205 colon = tested on: COLO 205 colon
DU-145 prostate = tested on: DU-145 prostate
EKVX NSCLC = tested on: EKVX NSCLC
HCC-2998 colon = tested on: HCC-2998 colon
HCT-116 colon = tested on: HCT-116 colon
HCT-15 colon = tested on: HCT-15 colon
HL-60(TB) leukemia = tested on: HL-60(TB) leukemia
HOP-62 NSCLC = tested on: HOP-62 NSCLC
HS 578T breast = tested on: HS 578T breast
HT29 colon = tested on: HT29 colon
IGROV1 ovarian = tested on: IGROV1 ovarian
K-562 leukemia = tested on: K-562 leukemia
KM12 colon = tested on: KM12 colon
LOX IMVI melanoma = tested on: LOX IMVI melanoma
M14 melanoma = tested on: M14 melanoma
MALME-3M melanoma = tested on: MALME-3M melanoma
MCF7 breast = tested on: MCF7 breast
MDA-MB-231 breast = tested on: MDA-MB-231 breast
MDA-MB-435 = tested on: MDA-MB-435
MOLT-4 leukemia = tested on: MOLT-4 leukemia
NCI-H460 lung = tested on: NCI-H460 lung
NCI-H522 lung = tested on: NCI-H522 lung
NCI/ADR-RES ovarian = tested on: NCI/ADR-RES ovarian
OVCAR-3 ovarian = tested on: OVCAR-3 ovarian
OVCAR-4 ovarian = tested on: OVCAR-4 ovarian
OVCAR-5 ovarian = tested on: OVCAR-5 ovarian
OVCAR-8 ovarian = tested on: OVCAR-8 ovarian
PC-3 prostate = tested on: PC-3 prostate
RPMI-8226 leukemia = tested on: RPMI-8226 leukemia
RXF 393 renal = tested on: RXF 393 renal
SF-268 CNS = tested on: SF-268 CNS
SF-295 CNS = tested on: SF-295 CNS
SF-539 CNS = tested on: SF-539 CNS
SK-MEL-2 melanoma = tested on: SK-MEL-2 melanoma
SK-MEL-28 melanoma = tested on: SK-MEL-28 melanoma
SK-MEL-5 melanoma = tested on: SK-MEL-5 melanoma
SK-OV-3 ovarian = tested on: SK-OV-3 ovarian
SN12C renal = tested on: SN12C renal
SNB-19 CNS = tested on: SNB-19 CNS
SNB-75 CNS = tested on: SNB-75 CNS
SW-620 colon = tested on: SW-620 colon
T-47D breast = tested on: T-47D breast
TK-10 renal = tested on: TK-10 renal
U251 CNS = tested on: U251 CNS
UACC-62 melanoma = tested on: UACC-62 melanoma
UO-31 renal = tested on: UO-31 renal

Work on `Fc1ccc(-c2ncn(C3CCNCC3)c2-c2ccnc(Oc3cccc(C(F)(F)F)c3)n2)cc1` yielded a GI50 (786-0 renal) of 3.82 µM, a TGI (786-0 renal) of 7.49 µM and a GI50 (A498 renal) of 1.37 µM. The TGI (A498 renal) was 6.91 µM, the GI50 (A549 NSCLC) was 4.23 µM and the TGI (A549 NSCLC) was 7.94 µM. The GI50 (ACHN renal) was 3.29 µM, the TGI (ACHN renal) was 6.47 µM and the GI50 (BT-549 breast) was 4.34 µM. It also gave a TGI (BT-549 breast) of 9.51 µM, a GI50 (CAKI-1 renal) of 4.38 µM and a TGI (CAKI-1 renal) of 9.12 µM. The GI50 (COLO 205 colon) was 3.83 µM, the TGI (COLO 205 colon) was 7.45 µM and the GI50 (DU-145 prostate) was 3.99 µM. The TGI (DU-145 prostate) was 7.37 µM, the GI50 (EKVX NSCLC) was 3.63 µM and the TGI (EKVX NSCLC) was 8.3 µM. For the same molecule, the GI50 (HCC-2998 colon) was 3.92 µM, the TGI (HCC-2998 colon) was 8.35 µM and the GI50 (HCT-116 colon) was 3.65 µM. For the same molecule, the TGI (HCT-116 colon) was 7.29 µM, the GI50 (HCT-15 colon) was 3.79 µM and the TGI (HCT-15 colon) was 7.25 µM. It also gave a GI50 (HL-60(TB) leukemia) of 4.58 µM, a TGI (HL-60(TB) leukemia) of 9.6 µM and a GI50 (HOP-62 NSCLC) of 3.75 µM. For the same molecule, the TGI (HOP-62 NSCLC) was 7.47 µM, the GI50 (HS 578T breast) was 1.98 µM and the TGI (HS 578T breast) was 7.07 µM. The GI50 (HT29 colon) was 2.54 µM, the TGI (HT29 colon) was 5.54 µM and the GI50 (IGROV1 ovarian) was 3.67 µM. The TGI (IGROV1 ovarian) was 7.88 µM, the GI50 (K-562 leukemia) was 3.8 µM and the TGI (K-562 leukemia) was 9.12 µM. For the same molecule, the GI50 (KM12 colon) was 3.93 µM, the TGI (KM12 colon) was 7.36 µM and the GI50 (LOX IMVI melanoma) was 8.96 µM. It also gave a TGI (LOX IMVI melanoma) of 14.1 µM, a GI50 (M14 melanoma) of 4.54 µM and a TGI (M14 melanoma) of 8.73 µM. For the same molecule, the GI50 (MALME-3M melanoma) was 4.66 µM, the TGI (MALME-3M melanoma) was 10.1 µM and the GI50 (MCF7 breast) was 3.68 µM. For the same molecule, the TGI (MCF7 breast) was 7.3 µM, the GI50 (MDA-MB-231 breast) was 3.96 µM and the TGI (MDA-MB-231 breast) was 7.56 µM. The GI50 (MDA-MB-435) was 3.99 µM, the TGI (MDA-MB-435) was 8.15 µM and the GI50 (MOLT-4 leukemia) was 4.15 µM. The TGI (MOLT-4 leukemia) was 9.48 µM, the GI50 (NCI-H460 lung) was 3.82 µM and the TGI (NCI-H460 lung) was 7.81 µM. It also gave a GI50 (NCI-H522 lung) of 4.03 µM, a TGI (NCI-H522 lung) of 7.95 µM and a GI50 (NCI/ADR-RES ovarian) of 4.27 µM. The TGI (NCI/ADR-RES ovarian) was 9.03 µM, the GI50 (OVCAR-3 ovarian) was 3.88 µM and the TGI (OVCAR-3 ovarian) was 7.26 µM. For the same molecule, the GI50 (OVCAR-4 ovarian) was 3.62 µM, the TGI (OVCAR-4 ovarian) was 7.26 µM and the GI50 (OVCAR-5 ovarian) was 3.21 µM. It also gave a TGI (OVCAR-5 ovarian) of 6.37 µM, a GI50 (OVCAR-8 ovarian) of 4.17 µM and a TGI (OVCAR-8 ovarian) of 8.58 µM. It also gave a GI50 (PC-3 prostate) of 3.7 µM, a TGI (PC-3 prostate) of 7.2 µM and a GI50 (RPMI-8226 leukemia) of 4.87 µM. The TGI (RPMI-8226 leukemia) was 11.7 µM, the GI50 (RXF 393 renal) was 2.66 µM and the TGI (RXF 393 renal) was 6.42 µM. It also gave a GI50 (SF-268 CNS) of 3.64 µM, a TGI (SF-268 CNS) of 7.37 µM and a GI50 (SF-295 CNS) of 3.92 µM. It also gave a TGI (SF-295 CNS) of 8.1 µM, a GI50 (SF-539 CNS) of 3.92 µM and a TGI (SF-539 CNS) of 7.68 µM. The GI50 (SK-MEL-2 melanoma) was 4.62 µM, the TGI (SK-MEL-2 melanoma) was 8.84 µM and the GI50 (SK-MEL-28 melanoma) was 3.62 µM. It also gave a TGI (SK-MEL-28 melanoma) of 6.93 µM, a GI50 (SK-MEL-5 melanoma) of 3.28 µM and a TGI (SK-MEL-5 melanoma) of 6.5 µM. The GI50 (SK-OV-3 ovarian) was 3.82 µM, the TGI (SK-OV-3 ovarian) was 7.31 µM and the GI50 (SN12C renal) was 3.93 µM. For the same molecule, the TGI (SN12C renal) was 7.47 µM, the GI50 (SNB-19 CNS) was 3.94 µM and the TGI (SNB-19 CNS) was 7.67 µM. It also gave a GI50 (SNB-75 CNS) of 2.01 µM, a TGI (SNB-75 CNS) of 6.52 µM and a GI50 (SW-620 colon) of 3.56 µM. The TGI (SW-620 colon) was 7.03 µM, the GI50 (T-47D breast) was 2.93 µM and the TGI (T-47D breast) was 6.43 µM. It also gave a GI50 (TK-10 renal) of 3.68 µM, a TGI (TK-10 renal) of 7.22 µM and a GI50 (U251 CNS) of 3.61 µM. It also gave a TGI (U251 CNS) of 7.08 µM, a GI50 (UACC-62 melanoma) of 4.05 µM and a TGI (UACC-62 melanoma) of 7.59 µM. It also gave a GI50 (UO-31 renal) of 2.8 µM and a TGI (UO-31 renal) of 6.41 µM.

Reference: PubChem BioAssay (NCI)
